“Also recorded” adds a separate entry of the source. *1 amine or outer side, *2 acyl side, *3 side chain or, on linkers, in order; H or OH if unused. [ ]: non-standard residue; d: D form. The star is where a group is joined. βAsp = O=C(O)[C@H](CC(=O)[*:2])N[*:1]; Hexenoyl(3E) = CC/C=C/CC(=O)*
Tests used:
GH secretion = assay: GH response in female Sprague-Dawley rats (plasma GH ELISA); type: in vivo, rat; settings: for GH secretion in rats (in words) / AUC(0-60min) of GH / TMAX of GH / AUC(0-60 min) of GH, fold lower than TH9507 / Cmax of GH, fold lower than TH9507: female rats; for GH secretion in rats (in words) / AUC(0-60 min) of GH, fold lower than TH9507 / Cmax of GH, fold lower than TH9507: 10 μg/rat; for AUC(0-60min) of GH / TMAX of GH: 10 μg/rat subcutaneous, 5% mannitol
Procedure: The reporter gene assay was performed on baby hamster kidney (BHK) cells stably expressing the human GRF receptor and a cAMP-inducible alkaline phosphatase reporter gene; the peptides were tested at concentrations from 1 pM to 10 μM. Acute GH response was measured in blood samples obtained from female rats that were injected with 10 μg/rat peptides in 5% mannitol.
Sprague-Dawley rats (female, 250-300 g) were obtained from Charles River Inc. The animals were kept in groups of 4 rats per cage and were maintained on standard laboratory chow in 12:12 light:dark cycle.
On the day of the experiment, the animals were anesthetized with 2.5% isoflurane. A mid-section opening was made in the neck to expose the carotid artery. The carotid artery was cannulated with polypropylene tube (PE-50) for blood withdrawal. The rats were subcutaneously injected with the peptides (10 μg/rat) dissolved in formulation 5 (20 mM Sodium Acetate, 5% D-mannitol pH 5 (adjusted with AcOH). Blood samples (400 μL) were collected at pre-dose and at 5, 10, 15, 30 and 60 minutes after the injection into microtainer tubes containing K3EDTA and 25 μl of acidified Hank's buffered salt solution (AHBSS). The samples were immediately centrifuged in a microfuge for 2 minutes and the plasma was collected into screwcap Eppendorf™ tubes and quickly frozen in liquid nitrogen. The samples were kept at −80° C.
Rat plasma samples were thawed on ice, vortexed briefly to mix the contents and centrifuged at 9,000 RPM for 2 min at 4° C. GH levels were determined using the Rat/Mouse Growth Hormone ELISA kit from Millipore® (Cat. #EZRMGH-45K). Samples were diluted 10-fold with the assay buffer and 10 μl of the diluted samples were added along with 90 μl of assay buffer to the ELISA plate. The remainder of the assay was performed according to the manufacturer's protocol.
The standard curve was plotted using the 4-parameter logistic equation using GraphPad Prism™ software and was used to determine the GH concentration of plasma samples. The data were analyzed using one-way analysis of variance. Bonferroni's test was used to make comparisons among different treatments.

human GRF receptor = target: T1, human GRF receptor (Homo sapiens, UniProt Q02643); assay: Reporter gene assay in BHK cells (cAMP-inducible alkaline phosphatase); type: cell-based; settings: for Emax / SNR (signal to noise ratio) / EC50: 24 h; for EC50: peptides 10^-5 M to 10^-12 M
T1 construct: expressed in transfected cells
T1 sequence (Q02643 23-423): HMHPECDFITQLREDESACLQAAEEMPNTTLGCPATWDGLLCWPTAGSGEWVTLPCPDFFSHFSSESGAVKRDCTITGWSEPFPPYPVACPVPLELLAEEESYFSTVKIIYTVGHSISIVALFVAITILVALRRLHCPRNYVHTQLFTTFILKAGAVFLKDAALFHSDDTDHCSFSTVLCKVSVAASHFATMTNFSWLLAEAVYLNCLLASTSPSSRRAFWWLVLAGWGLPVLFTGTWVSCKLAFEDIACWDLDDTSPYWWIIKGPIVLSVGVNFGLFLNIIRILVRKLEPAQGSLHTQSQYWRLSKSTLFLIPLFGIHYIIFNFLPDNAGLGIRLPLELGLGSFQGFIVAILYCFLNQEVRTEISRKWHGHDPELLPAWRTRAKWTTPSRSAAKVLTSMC
Procedure: BHK cells stably transfected with the human GRF receptor and an alkaline phosphatase reporter gene were plated in 96-well plates at 5×10^4 cells/well and incubated overnight. The next day, cells were washed twice with PBS and maintained for 10-30 min. in assay buffer (DMEM without phenol red, 20 mM HEPES and 1% heat-inactivated fetal bovine serum (FBS)). Peptides from 10^−5 M to 10^−12 M were added to the cells and incubated for 24 h. The alkaline phosphatase level in the culture supernatants were performed using the Alkaline Phosphatase detection kit from Invitrogen® (cat. #T1017).

[1] = Formation of TH0601 from TH05111 or tesamorelin with and without HP-β-CD (FIG. 19); type: physicochemical; settings: 8 mg/mL peptide, 10% HP-β-CD vs 5% mannitol, pH 6
Procedure: Isomerization of Asp^8 in the structure of TH05111 leads to formation of the tesamorelin degradant TH0601, which makes it possible to monitor degradation by using the same chromatographic conditions as for tesamorelin.
The comparison of the kinetics of TH0601 formation in the solutions containing 8 mg/mL of TH05111 or tesamorelin with and without HP-β-CD is shown in FIG. 19.

In the case of `CC/C=C/CC(=O)N[C@@H](Cc1ccc(O)cc1)C(=O)N[C@@H](C)C(=O)N[C@@H](CC(=O)O)C(=O)N[C@@H](C)C(=O)N[C@H](C(=O)N[C@@H](Cc1ccccc1)C(=O)N[C@H](C(=O)N[C@@H](CC(N)=O)C(=O)N[C@@H](CO)C(=O)N[C@@H](Cc1ccc(O)cc1)C(=O)N[C@@H](CCCNC(=N)N)C(=O)N[C@@H](CCCCN)C(=O)N[C@H](C(=O)N[C@@H](CC(C)C)C(=O)NCC(=O)N[C@@H](CCC(N)=O)C(=O)N[C@@H](CC(C)C)C(=O)N[C@@H](CO)C(=O)N[C@@H](C)C(=O)N[C@@H](CCCNC(=N)N)C(=O)N[C@@H](CCCCN)C(=O)N[C@@H](CC(C)C)C(=O)N[C@@H](CC(C)C)C(=O)N[C@@H](CCC(N)=O)C(=O)N[C@@H](CC(=O)O)C(=O)N[C@H](C(=O)N[C@@H](CC[S+](C)[O-])C(=O)N[C@@H](CO)C(=O)N[C@@H](CCCNC(=N)N)C(=O)N[C@@H](CCC(N)=O)C(=O)N[C@@H](CCC(N)=O)C(=O)NCC(=O)N[C@@H](CCC(=O)O)C(=O)N[C@@H](CO)C(=O)N[C@@H](CC(N)=O)C(=O)N[C@@H](CCC(N)=O)C(=O)N[C@@H](CCC(=O)O)C(=O)N[C@@H](CCCNC(=N)N)C(=O)NCC(=O)N[C@@H](C)C(=O)N[C@@H](CCCNC(=N)N)C(=O)N[C@@H](C)C(=O)N[C@@H](CCCNC(=N)N)C(=O)N[C@@H](CC(C)C)C(N)=O)[C@@H](C)CC)C(C)C)[C@@H](C)O)[C@@H](C)CC` (some centres unmarked) [TH0286, N-Hex-hGRF[1-44]Met[O]27 amide], the “GH secretion in rats (in words)” value (GH secretion) is reported as “not significantly different”, the “AUC(0-60min) of GH” value (GH secretion) is reported as 14751 ± 5745 ng·min/mL and the “TMAX of GH” value (GH secretion) is reported as 10 min. The “In vitro potency compared to TH9507 (in words)” value (human GRF receptor) was “comparable to TH9507”.

For `CC/C=C/CC(=O)N[C@@H](Cc1ccc(O)cc1)C(=O)N[C@@H](C)C(=O)N[C@@H](CC(=O)O)C(=O)N[C@@H](C)C(=O)N[C@H](C(=O)N[C@@H](Cc1ccccc1)C(=O)N[C@H](C(=O)N[C@@H](CC(N)=O)C(=O)N[C@@H](CO)C(=O)N[C@@H](Cc1ccc(O)cc1)C(=O)N[C@@H](CCCNC(=N)N)C(=O)N[C@@H](CCCCN)C(=O)N[C@H](C(=O)N[C@@H](CC(C)C)C(=O)NCC(=O)N[C@@H](CCC(N)=O)C(=O)N[C@@H](CC(C)C)C(=O)N[C@@H](CO)C(=O)N[C@@H](C)C(=O)N[C@@H](CCCNC(=N)N)C(=O)N[C@@H](CCCCN)C(=O)N[C@@H](CC(C)C)C(=O)N[C@@H](CC(C)C)C(=O)N[C@@H](CCC(N)=O)C(=O)N[C@@H](CC(=O)O)C(=O)N[C@H](C(=O)N[C@@H](CCSC)C(=O)N[C@@H](CO)C(=O)N[C@@H](CCCNC(=N)N)C(=O)N[C@@H](CCC(N)=O)C(=O)N[C@@H](CCC(N)=O)C(=O)NCC(=O)N[C@@H](CCC(=O)O)C(=O)N[C@@H](CO)C(=O)N[C@@H](CC(N)=O)C(=O)N[C@@H](CCC(N)=O)C(=O)N[C@@H](CCC(=O)O)C(=O)N[C@@H](CCCNC(=N)N)C(=O)NCC(=O)N[C@@H](C)C(=O)N[C@@H](CCCNC(=N)N)C(=O)N[C@@H](C)C(=O)N[C@@H](CCCNC(=N)N)C(=O)N[C@@H](CC(C)C)C(N)=O)[C@@H](C)CC)C(C)C)[C@@H](C)O)[C@@H](C)CC` [TH9507, [trans-3-hexenoyl]hGRF (1-44) amide], the “AUC(0-60min) of GH” value (GH secretion) was 18953 ± 6317 ng·min/mL, the “TMAX of GH” value (GH secretion) was 10 min and the Emax (human GRF receptor) was 100 ± 11.3%. The “SNR (signal to noise ratio)” value (human GRF receptor) was 22.3.

Work on `CC/C=C/CC(=O)N[C@@H](Cc1ccc(O)cc1)C(=O)N[C@@H](C)C(=O)N[C@H]1CC(=O)N([C@@H](C)C(=O)N[C@H](C(=O)N[C@@H](Cc2ccccc2)C(=O)N[C@H](C(=O)N[C@@H](CC(N)=O)C(=O)N[C@@H](CO)C(=O)N[C@@H](Cc2ccc(O)cc2)C(=O)N[C@@H](CCCNC(=N)N)C(=O)N[C@@H](CCCCN)C(=O)N[C@H](C(=O)N[C@@H](CC(C)C)C(=O)NCC(=O)N[C@@H](CCC(N)=O)C(=O)N[C@@H](CC(C)C)C(=O)N[C@@H](CO)C(=O)N[C@@H](C)C(=O)N[C@@H](CCCNC(=N)N)C(=O)N[C@@H](CCCCN)C(=O)N[C@@H](CC(C)C)C(=O)N[C@@H](CC(C)C)C(=O)N[C@@H](CCC(N)=O)C(=O)N[C@@H](CC(=O)O)C(=O)N[C@H](C(=O)N[C@@H](CCSC)C(=O)N[C@@H](CO)C(=O)N[C@@H](CCCNC(=N)N)C(=O)N[C@@H](CCC(N)=O)C(=O)N[C@@H](CCC(N)=O)C(=O)NCC(=O)N[C@@H](CCC(=O)O)C(=O)N[C@@H](CO)C(=O)N[C@@H](CC(N)=O)C(=O)N[C@@H](CCC(N)=O)C(=O)N[C@@H](CCC(=O)O)C(=O)N[C@@H](CCCNC(=N)N)C(=O)NCC(=O)N[C@@H](C)C(=O)N[C@@H](CCCNC(=N)N)C(=O)N[C@@H](C)C(=O)N[C@@H](CCCNC(=N)N)C(=O)N[C@@H](CC(C)C)C(N)=O)[C@@H](C)CC)C(C)C)[C@@H](C)O)[C@@H](C)CC)C1=O` [TH1063, Asu^3 tesamorelin] yielded an Emax (human GRF receptor) of 95.7 ± 8.1%.

For “{Hexenoyl(3E)}-YADAIFTDSYRKVLGQLSARKLLQDIMSRQQGESNQERGARARL-NH2 [TH05111, Asp^8 tesamorelin]”, the “AUC(0-60 min) of GH, fold lower than TH9507” value (GH secretion) was 2.9 fold, the “Cmax of GH, fold lower than TH9507” value (GH secretion) was 2.2 fold and the “AUC(0-60min) of GH” value (GH secretion) was 6540 ± 2647 ng·min/mL. The “TMAX of GH” value (GH secretion) was 5 min, the “GH-releasing activity in vivo compared to parent molecule” value (GH secretion; relative to tesamorelin, FIG. 1) was about 30% and the “In vitro potency compared to TH9507 (in words)” value (human GRF receptor) was “comparable to TH9507; also recorded: equipotent”. For the same compound, the Emax (human GRF receptor) was 114 ± 17%, the “SNR (signal to noise ratio)” value (human GRF receptor) was 25.3 and the EC50 (human GRF receptor) was 0.08 ± 0.02 nM. The “Isomerization of the Asp^8 residue in the presence of HP-β-CD” value [1] was “facilitated”.

For “{Hexenoyl(3E)}-YADAIFT[βAsp]SYRKVLGQLSARKLLQDIMSRQQGESNQERGARARL-NH2 [TH0601, β-Asp^8 tesamorelin]”, the “AUC(0-60 min) of GH, fold lower than TH9507” value (GH secretion) was 12.4 fold, the “Cmax of GH, fold lower than TH9507” value (GH secretion) was 14.0 fold and the “GH secretion in rats (in words)” value (GH secretion) was “biologically inactive”. For the same compound, the “AUC(0-60min) of GH” value (GH secretion) was 1533 ± 734 ng·min/mL, the “TMAX of GH” value (GH secretion) was 5 min and the “EC50 fold higher than TH9507” value (human GRF receptor) was 500 fold. The Emax (human GRF receptor) was 120 ± 23.5%, the “SNR (signal to noise ratio)” value (human GRF receptor) was 26.9 and the EC50 (human GRF receptor) was 30 ± 30.4 nM.

With `CC/C=C/CC(=O)N[C@@H](Cc1ccc(O)cc1)C(=O)N[C@@H](C)C(=O)N[C@@H](CC(=O)N[C@@H](C)C(=O)N[C@H](C(=O)N[C@@H](Cc1ccccc1)C(=O)N[C@H](C(=O)N[C@@H](CC(N)=O)C(=O)N[C@@H](CO)C(=O)N[C@@H](Cc1ccc(O)cc1)C(=O)N[C@@H](CCCNC(=N)N)C(=O)N[C@@H](CCCCN)C(=O)N[C@H](C(=O)N[C@@H](CC(C)C)C(=O)NCC(=O)N[C@@H](CCC(N)=O)C(=O)N[C@@H](CC(C)C)C(=O)N[C@@H](CO)C(=O)N[C@@H](C)C(=O)N[C@@H](CCCNC(=N)N)C(=O)N[C@@H](CCCCN)C(=O)N[C@@H](CC(C)C)C(=O)N[C@@H](CC(C)C)C(=O)N[C@@H](CCC(N)=O)C(=O)N[C@@H](CC(=O)O)C(=O)N[C@H](C(=O)N[C@@H](CCSC)C(=O)N[C@@H](CO)C(=O)N[C@@H](CCCNC(=N)N)C(=O)N[C@@H](CCC(N)=O)C(=O)N[C@@H](CCC(N)=O)C(=O)NCC(=O)N[C@@H](CCC(=O)O)C(=O)N[C@@H](CO)C(=O)N[C@@H](CC(N)=O)C(=O)N[C@@H](CCC(N)=O)C(=O)N[C@@H](CCC(=O)O)C(=O)N[C@@H](CCCNC(=N)N)C(=O)NCC(=O)N[C@@H](C)C(=O)N[C@@H](CCCNC(=N)N)C(=O)N[C@@H](C)C(=O)N[C@@H](CCCNC(=N)N)C(=O)N[C@@H](CC(C)C)C(N)=O)[C@@H](C)CC)C(C)C)[C@@H](C)O)[C@@H](C)CC)C(=O)O` [TH0677, β-Asp^3 tesamorelin] the “GH secretion in rats (in words)” value (GH secretion) was “did not produce GH; also recorded: did not stimulate GH secretion; also recorded: biologically inactive”, the “EC50 fold higher than TH9507” value (human GRF receptor) was 71 fold and the Emax (human GRF receptor) was 116 ± 25.8%. The “SNR (signal to noise ratio)” value (human GRF receptor) was 25.9.

From patent US8871713B2, “Formulations of growth hormone releasing factor (GRF) molecules with improved stability” (Theratechnologies Inc., priority 2013, dated 2014)
